Measured values: patent US9540299B2, “MTOR-independent activator of TFEB for autophagy enhancement and uses thereof” (Hong Kong Baptist University, priority 2015, dated 2017)

System: MTOR pathway
Experiment: Effects on MTOR pathway: phosphorylation by western blot in N2a cells
Type: cell-based, mouse
Conditions: for phosphorylation of RPS6KB1/p70S6K and MTOR: 12 hours; for phosphorylation of RPS6KB1/p70S6K, MTOR and AKT: 12 h, curcumin 10 μM, analogs 1 μM
Experimental: N2a cells were treated with curcumin (Cur, 10 μM), A2, B3 and C1 (1 μM) for 12 h. Torin 1 (1 μM) treatment for 2 h was used as a positive control. […] FIG. 3B is a bar chart showing the expression of phosphorylated (p−) and total RPS6KB1/P70S6K, MTOR and AKT. Data are presented as the mean±SD from three independent experiments. *p<0.05 vs. the control (0.1% DMSO).
N2a cells are treated with E2, E3 and E4 (1 μM) for 12 hours. Torin 1 (1 μM) treatment for 2 hours is used as a positive control. The expression of phosphorylated (p−) and total RPS6KB1/P70S6K and MTOR are shown in Western blotting (FIG. 15A). The phosphorylation of RPS6KB1 and MTOR levels are also quantified (FIG. 15B). Data are presented as the mean±SD from three independent experiments. *p<0.05 vs. the control (0.1% DMSO).
N2a cells are treated with different concentrations of E4 (0-1 μM) and Torin 1 (1 μM) for 6 hours. The expression of phosphorylated (p−) and MTOR are detected by Western blotting (FIG. 23A). The phosphorylation of MTOR levels are also quantified (FIG. 23B). Data are presented as the mean±SD from three independent experiments. *p<0.05 vs. the control (0.1% DMSO).
N2a cells are treated with E4 (1 μM) for indicated times and Torin 1 (1 μM) for 6 hours. The expression of phosphorylated (p−) and total RPS6KB1/P70S6K and MTOR are detected by Western blotting (FIG. 24A). The phosphorylation of RPS6KB1 and MTOR levels are also quantified (FIG. 24B). Data are presented as the mean±SD from three independent experiments. *p<0.05 vs. the control (0.1% DMSO).
N2a, Hela and Hela cells stably expressing 3×-Flag-TFEB are cultured in DMEM supplemented with 10% FBS. SH-SY5Y cells are cultured in DMEM/F12 supplemented with 10% FBS. For drug treatment, the full medium is replaced by fresh Opti-MEM I and then the compounds (in 0.1% DMSO) are added to the cells and incubated for 12 h. Inducible PC12 cells overexpressing SNCA (WT and A53T) (a kind gift from Prof. David C. Rubinsztein at Cambridge University) are grown in DMEM supplemented with 10% horse serum, 5% FBS, 50 μg/ml G418, and 150 μg/ml hygromycin B at 37° C., 10% CO2. Cells are treated with 2 μg/ml doxycycline (Dox) for 24 h to induce SNCA expression. The full medium is changed to Opti-MEM I containing the testing compounds for another 48 h.
Cells are lysed on ice in 1× Lysis Buffer (9803, Life Technologies) with complete protease inhibitor mixture (04693124001, Roche Applied Science). Animal tissues are homogenized in nine volumes of ice-cold PBS supplemented with protease inhibitors. Cytosolic and nuclear fractions are isolated using protocols similar to those described previously. Anti-Flag or TFEB antibody is added to the whole cell lysates and Dynabeads® Protein G (10003D, Life Technologies) is used for immunoprecipitation. Proteins are separated by 10-15% SDS-PAGE, transferred, and blotted with the antibodies described. The blots are then incubated with secondary antibodies or the Clean-Blot IP Detection Reagent (21230, Thermo Scientific) at room temperature for 1 h. The protein signals are detected by ECL kit (32106, Pierce) and quantified using ImageJ software.
N2a and HeLa cells are cultured in DMEM supplemented with 10% FBS. HeLa cells stably expressing 3×-Flag-TFEB are maintained in DMEM supplemented with 10% FBS and 500 μg/mL G418. For drug treatment, the full medium is replaced by fresh Opti-MEM I containing the compounds (in 0.1% DMSO) and incubated for the indicated time periods.
Cells are lysed on ice in 1× Lysis Buffer (9803, Life Technologies) with complete protease inhibitor mixture (04693124001, Roche Applied Science) and phosphatase inhibitor (B15001, Biotool). Cytosolic and nuclear fractions are isolated using protocols similar to those described previously. Proteins are separated by 10-15% SDS-PAGE, transferred, and blotted with the antibodies described. The blots are then incubated with primary and secondary antibodies. […]

SMILES	phosphorylation of RPS6KB1/p70S6K and MTOR (1 μM)	phosphorylation of RPS6KB1/p70S6K, MTOR and AKT	also measured
O=C(/C=C/c1ccccc1Br)/C=C/c1ccccc1Br [E3]	significantly inhibit		
O=C(/C=C/c1cccc(C(F)(F)F)c1)/C=C/c1cccc(C(F)(F)F)c1 [A2, 1,5-bis(3-(trifluoromethyl)phenyl)penta-1,4-dien-3-one]		inhibit	
O=C(/C=C/c1ccccc1I)/C=C/c1ccccc1I [E4]	significantly inhibit		phosphorylation of MTOR, dose-dependent (0-1 μM, 6 hours, dose-dependent manner): significantly inhibits; phosphorylation of both MTOR and p70S6K, time-dependent (1 μM, 0-6 hours, time-dependent manner): inhibits
O=C(/C=C/c1ccc(O)cc1)/C=C/c1ccc(O)cc1 [B3, 1,5-bis(4-hydroxyphenyl)penta-1,4-dien-3-one]		inhibit	
O=C(/C=C/c1ccccc1Cl)/C=C/c1ccccc1Cl [E2]	significantly inhibit		
COc1cc(/C=C/C(=O)CC(=O)/C=C/c2ccc(O)c(OC)c2)ccc1O [curcumin, Curcumin, reference compound]		inhibit	
COc1ccccc1/C=C/C(=O)/C=C/c1ccccc1OC [C1, 1,5-bis(2-methoxyphenyl)penta-1,4-dien-3-one]		significantly promotes	
